Reference: patent US20260193644A1, “Compositions and Methods For Modulation of Tumor Suppressors and Oncogenes” (FLAGSHIP PIONEERING INNOVATIONS VII, LLC, priority 2022, published 2026)
Values joined by “and” are separate entries in the source; they are usually repeats but may differ in a detail not shown here. Equal values may be shown once.

What was measured:
Format in all cases: cell-based
HCT116 cells = experiment: WST-1 proliferation assay on HCT116 cells treated with peptide
Protocol: Proliferation: HCT-116 cells were plated in 96 well plate (5,000 cells/well) grown in standard media supplemented with 10% FBS. After 48 hours incubation at 37° C. (5% CO2), the cells are subjected to the WST-1 ([…]) assay. The WST-1 assay (Sigma) is a measure of the metabolic activity (i.e. proliferative rate) of cells. […]

U2OS cells [1] = experiment: Caspase-Glo 3/7 apoptosis assay, peptide-treated U2OS cells; settings: for z-score compared to vehicle control (peptides inducing significant apoptosis): listed = significant
Protocol: (§1) Cell Culture: Tumor cell lines HCT-116 (Colon Cancer Cell line, ATCC) and U2OS (Osteoscarcoma Cell line, ATCC) cells were grown adherently in ATCC-formulated McCoy's 5a medium supplemented with 10% FBS and 1× penicillin-streptomycin at 37° C. (5% CO2). Jurkat cells (acute T-cell leukemia cell line, ATCC) were grown as suspension cultures in ATCC-formulated RPMI-1640 supplemented with 10% FBS and 1× penicillin-streptomycin at 37° C. (5% CO2). HEP-G2 cells (Liver Cancer Cell line, ATCC) cells were grown adherently in ATCC-formulated Eagle's Minimum Essential Medium (EMEM) supplemented with 10% FBS and 1× penicillin-streptomycin at 37° C. (5% CO2).
(§2) Peptide Treatment: Target protein SEQ ID NO: 37997 was synthesized through Fluorenylmethyloxycarbonyl (Fmoc) protection group chemistry using Solid Phase Peptide Synthesis (SPPS). 5 μM of target peptide and control peptides were added to a 96 well plate containing 10,000 cells (100 μL/well). A white-walled 96-well plate adequate for cell culture and compatible with the luminometer was used. (Corning)
(§3) Apoptosis Assay: Following 24 hrs of peptide treatment, an equal volume reconstituted Caspase-Glo® 3/7 assay reagent mixture (Promega) was added to the cells. The contents of wells were gently mixed using a plate shaker at 300-500 rpm for 30 seconds. The plate was then Incubate at room temperature for 3 hours. The treated plates were then read for luminescence on Promega™ GloMax® Plate Reader. A blank reaction that contained caspase-Glo® 3/7 reagent, vehicle and cell culture medium without cells was used to measure background luminescence. The blank reaction values were subtracted from experimental values. A negative control that contained caspase-Glo® 3/7 reagent and vehicle-treated cells in medium was included to determine the basal caspase activity of the cell culture system. Significant difference in apoptosis was determined using ANOVA analysis by comparing cells treated with SEQ ID NO: 37997 peptide to cells treated with an irrelevant control peptide, or vehicle control treated cells.

U2OS cells [2] = experiment: WST-1 proliferation assay on U2OS cells treated with peptide
HCT-116 cells = experiment: Caspase-Glo 3/7 apoptosis assay, peptide-treated HCT-116 cells; settings: for peptides inducing significant apoptosis (z-score vs vehicle control): listed = significant
Protocol: as §1, §2, §3

Jurkat cells = experiment: Caspase-Glo 3/7 apoptosis assay, peptide-treated Jurkat cells; settings: listed = significant
Protocol: as §1, §2, §3

C3AR1 = target: T1, C3AR1 (Homo sapiens, UniProt Q16581); experiment: PathHunter β-Arrestin C3AR1 human complement peptide GPCR agonist assay (gpcrMAX screening and hit-confirmation); settings: for % activity with respect to known agonist, C3A Receptor Agonist: hit-confirmation
T1 sequence (Q16581 1-482): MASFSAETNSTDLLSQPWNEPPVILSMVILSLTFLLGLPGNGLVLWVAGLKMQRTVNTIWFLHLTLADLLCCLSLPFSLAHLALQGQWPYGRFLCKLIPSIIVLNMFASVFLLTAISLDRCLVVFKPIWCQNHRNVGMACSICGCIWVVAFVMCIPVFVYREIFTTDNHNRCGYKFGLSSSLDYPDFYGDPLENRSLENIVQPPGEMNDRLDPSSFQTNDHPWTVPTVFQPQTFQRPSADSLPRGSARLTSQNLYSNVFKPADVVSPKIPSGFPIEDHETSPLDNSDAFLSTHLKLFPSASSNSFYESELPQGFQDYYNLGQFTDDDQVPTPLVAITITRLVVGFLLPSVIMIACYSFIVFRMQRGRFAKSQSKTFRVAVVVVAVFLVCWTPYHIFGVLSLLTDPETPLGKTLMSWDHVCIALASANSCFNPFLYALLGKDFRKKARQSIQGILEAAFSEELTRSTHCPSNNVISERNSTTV
Protocol: SEQ ID NO: 30949 blocks CXCR4 and cancer cell migration, making it suitable in the treatment of multiple cancers. Whereas SEQ ID NO: 34229 agonizes C3AR1, a key regulator of immune response and inflammation. The target proteins SEQ ID NO: 30949 and SEQ ID NO: 34229 were treated with gpcrMAX, which is a comprehensive panel covering 168 G protein-coupled receptors (GPCRs) from over 60 distinct receptor families. This panel utilizes PathHunter® β-Arrestin technology (Eurofins DiscoverX). PathHunter β-Arrestin GPCR cell lines are engineered to co-express the ProLink™ (PK) tagged GPCR and the Enzyme Acceptor (EA) tagged β-Arrestin. Activation of the GPCR-PK induces β-Arrestin-EA recruitment, forcing complementation of the two β-galactosidase enzyme fragments (EA and PK). The resulting functional enzyme hydrolyzes substrate to generate a chemiluminescent signal.
Cell Handling: PathHunter® cell lines were expanded from freezer stocks according to standard procedures. Cells were seeded in a total volume of 20 μL into white walled, 384-well microplates and incubated at 37° C. for the appropriate time prior to testing. […]
Signal Detection: Assay signal was generated through a single addition of 12.5 or 15 μL (50% v/v) of PathHunter® Detection reagent cocktail, followed by a one-hour incubation at room temperature. Microplates were read following signal generation with a PerkinElmer Envision™ instrument for chemiluminescent signal detection.
Data Analysis: Compound activity was analyzed using CBIS data analysis suite (ChemInnovation, CA). For agonist mode assays, percentage activity was calculated using the following formula: % Activity=100%×(mean RLU of test sample−mean RLU of vehicle control)/(mean MAX control ligand−mean RLU of vehicle control). For antagonist mode assays, percentage inhibition was calculated using the following formula: % Inhibition=100%×(1−(mean RLU of test sample−mean RLU of vehicle control)/(mean RLU of EC80 control−mean RLU of vehicle control)).

[3] = tested on: HCT116 colon cancer cell line; experiment: WST-1 proliferation assay on HCT116 cells stably over-expressing target protein; settings: 48 hours
Protocol: Over-expression: Stable over-expression tumor cell lines were made by transduction using lentivirus. For virus production, HEK-293T cells were cultured in DMEM with high glucose and GlutaMAX™ medium (ThermoFisher) supplemented with 10% FBS. After 24 h, cells were transfected using lipofectamine 3000 (ThermoFisher) of Lentiviral packaging plasmid mix (CELLECTA) and pGenLenti plasmids (GenScript Inc) containing: 1) no insert, 2) Target Protein encoding sequence, and 3) the AP2A1 protein (positive control for cell proliferation; https://doi.org/10.1038/sj.one.1205216), into HCT116 (Colon cancer cell line; ATCC). A Myc-tag (EQKLISEEDL) was added to the c-terminus of the expressed protein. After 48 hr post-transfection, culture media containing viruses was collected, loaded onto a 10 ml syringe and filtered through a 0.45 μm filter. For cell transduction, HCT116 colorectal cancer cells were seeded in 6-well plates, the virus was added to the cells. After post-transduction, stable cell mixed populations are selected for with puromycin for 14 days. Expression of the Target Protein and controls are confirmed by immunoblot of 50 μg of cell lysate using anti-myc-tag polyclonal antibody (CST).
Proliferation: Polyclonal cell lines that over-express the Target Protein or control, wild-type HCT-116 cells, were plated in 96 well plate (10,000 or 5,000 cells per well) grown in standard media in both low serum (0.1% FBS) and high serum (10% FBS) conditions, respectively. After 48 hours, the cells are subjected to the WST-1 ([…]) assay. The WST-1 assay (Sigma) is a measure of the metabolic activity of group of cells. The higher the metabolic activity the higher the proliferation rate. Significant differences in proliferation are determined by comparing protein-expressing cell lines with a stable cell line of the empty expression vector (control) using ANOVA analysis.

[4] = Low sera (continued), 0.5 uM, head 3 SD
[5] = 5 μM peptide, 24 hrs, vs vehicle control
[6] = Low sera (continued), 0.1 uM, head 4 SD

SEQ ID NO: 27193: ORF peptide; sequence only in Sequence Listing (LRFKVLLRVLFFMAPVPPQVFGQ; listed as Homo sapiens)
proliferation hit score, High sera (HCT116 cells; 0.5 uM, head 3 SD): 1.079 SD
proliferation hit score, High sera (HCT116 cells; 5 uM, head 3 sd): 0.8327 SD
proliferation hit score, Low sera (HCT116 cells; [4]): 1.081 SD
proliferation hit score, Low sera (HCT116 cells; Low sera, 5 uM, head 2 SD): 0.6897 SD
z-score compared to vehicle control (peptides inducing significant apoptosis) (U2OS cells [1]): SEQ ID NO: 27193
proliferation hit score, High sera (U2OS cells [2]; 5 uM, head 5 SD): 15.33 SD
proliferation hit score, Low sera (U2OS cells [2]; [4]): 1.975 SD
proliferation hit score, Low sera (U2OS cells [2]; Low sera, 5 uM, head 2 SD): 2.319 SD
peptides inducing significant apoptosis (z-score vs vehicle control) (HCT-116 cells): SEQ ID NO: 27193
peptides inducing significant apoptosis vs vehicle control (Jurkat cells): SEQ ID NO: 27193

SEQ ID NO: 34229: novel peptide GPCR ligand that agonizes C3AR1; sequence only in Sequence Listing (MWILRDRAVHELQAVLLALVLGR; listed as Homo sapiens)
z-score compared to vehicle control (peptides inducing significant apoptosis) (U2OS cells [1]): SEQ ID NO: 34229
GPCR ligand mode at C3AR1 (C3AR1; gpcrMAX panel): agonist of C3AR1
% activity with respect to known agonist, C3A Receptor Agonist (C3AR1; 0.3 μM): significant activity
% activity with respect to known agonist, C3A Receptor Agonist (C3AR1; 1 μM): significant activity
peptides inducing significant apoptosis vs vehicle control (Jurkat cells): SEQ ID NO: 34229

SEQ ID NO: 37997: synthetically produced target protein, secreted tumor suppressor; sequence only in Sequence Listing (MSRLSLSWESLTNAIWPLDLQDIKGYLPNPLPQRVNLRKQILSISKEPN; listed as Homo sapiens)
proliferation (WST-1) vs irrelevant peptide or untreated cells (HCT116 cells; 10 μM, 10% serum, 48 hours): significantly decreases proliferation
proliferation hit score, High sera (HCT116 cells; 0.1 uM, head 3 SD): −3.114 SD
proliferation hit score, High sera (HCT116 cells; 1 uM, head 2 SD): −5.8 SD
proliferation hit score, High sera (HCT116 cells; 10 uM, head 4 SD): −11.51 SD
proliferation hit score, Low sera (HCT116 cells; Low sera, 1 uM, head 3 SD): −3.015 SD
proliferation hit score, Low sera (HCT116 cells; Low sera, 10 uM, head 3 SD): −6.915 SD
basal apoptosis levels (U2OS cells [1]; [5]): increase in basal apoptosis levels
proliferation hit score, High sera (U2OS cells [2]; 1 uM, head 5 SD): −5.9599 SD
proliferation hit score, High sera (U2OS cells [2]; 10 uM, head 8 SD): −13.23 SD
proliferation hit score, Low sera (U2OS cells [2]; Low sera (continued), 0.1 uM, head 2 SD): −2.359 SD
proliferation hit score, Low sera (U2OS cells [2]; [6]): 1.922 SD
proliferation hit score, Low sera (U2OS cells [2]; Low sera, 1 uM, head 5 SD): 0.3203 SD
proliferation hit score, Low sera (U2OS cells [2]; Low sera, 10 uM, head 6 SD): −16.09 SD
basal apoptosis levels (HCT-116 cells; [5]): increase in basal apoptosis levels

B1: SEQ ID NO: 27301: target protein over-expressed (Myc-tagged) in stable HCT116 cell line; oncogene (protein, listed as Homo sapiens)
chain: MVEKSHPSSLPTLPQPLNHCPETYMLLSAAPSGASQLLSTLTLFLKKHRMDIRTISLRMLLSHTGKLAL
modifications: Myc tag
notes: oncogene
proliferation (WST-1) on over-expression vs Empty Vector ([3]; high serum (10% FBS)): significantly increases proliferation
proliferation (WST-1) on over-expression vs Empty Vector ([3]; low serum (0.1% FBS)): significantly increases proliferation

B2: SEQ ID NO: 27000: ORF peptide; sequence only in Sequence Listing (peptide, listed as Homo sapiens)
chain: MNLNPRLRLQVISFHPHPKALAVTLLPALTQSLCLCMASCVYSGPKGFLFLFFPQTAQEKHMKNIT
z-score compared to vehicle control (peptides inducing significant apoptosis) (U2OS cells [1]): SEQ ID NO: 27000
proliferation hit score, Low sera (U2OS cells [2]; [6]): 7.758 SD and 7.542 SD
proliferation hit score, Low sera (U2OS cells [2]; Low sera, 1 uM, head 5 SD): 5.685 SD and 9.031 SD
peptides inducing significant apoptosis (z-score vs vehicle control) (HCT-116 cells): SEQ ID NO: 27000
peptides inducing significant apoptosis vs vehicle control (Jurkat cells): SEQ ID NO: 27000
